{
  "source": "patent US9409975B2",
  "about": "“Antibody binding microbial heparin binding motif to retard or prevent microbial biofilm formation on implanted medical devices” (priority 2012, dated 2016)",
  "key": {"[1]": {"system": "Candida albicans BWP17 wt planktonic growth", "test": "Growth curves and doubling times in presence or absence of soluble heparin", "assay_type": "cell-based", "details": "100 units/ml heparin", "method": "For growth curves in the presence or absence of soluble heparin, a single colony of BWP17 wt was inoculated into 3 ml YPD medium and incubated overnight at 30° C. with shaking at 225 rpm. Overnight cultures were diluted to an OD600 of 0.1 in 5 ml of YPD, RPMI-MOPS, RPMI-HEPES or CSM in a 50 ml conical polypropylene tube. Preservative-free pharmaceutical heparin (1000 units/ml) was added to yield a final concentration of 100 units/ml in the heparin-treated samples. Cultures were grown at 30° C. with shaking and OD600 measured periodically. Doubling times (td) were calculated based on the equation td=ln 2/μ (μ=specific growth rate (48). One hundred units/ml heparin, the concentration recommended to prevent clotting of central venous catheters (20), had no effect on doubling times of planktonic yeast cells grown in YPD, RPMI-HEPES, RPMI-MOPS or CSM, as shown in FIGS. 2A and 2B.\nA single copy of Int1, including 1450 bp upstream and 548 bp downstream from the Int1 open reading frame (www.candidagenome.org, Assembly 21), was integrated into the hisG locus of the int1−/− strain VBIDM2 (54) to produce the reconstituted strain KO509. Briefly, a copy of Int1 was generated by PCR, using primers 1 and 2 with BWP17 wt DNA as template and cloned into the SacI/MluI sites of pGEMHIS (51) to create pKO509. pKO509 was digested with SwaI and transformed into VBIDM2 to create the reconstituted strain KO509. PCR-mediated overlap extension mutagenesis (55) was used to produce copies of Int1 mutated at putative heparin binding domains. Briefly, primer pairs 1+3 and 2+4 (or 1+5 and 2+6) were used to produce two overlapping fragments of INT1 in which putative heparin binding domains were mutated (FKKRFFKL (SEQ ID NO: 2)→FKAAFFKL (SEQ ID NO: 53) or KQKKHQ (SEQ ID NO: 64)→KQAAHQ (SEQ ID NO: 63)), and a full length mutated sequence generated in a third […] using primers 1+2 with the fragments as template. […] Percent binding of each mutant to heparin in the ELISA assay was compared to the wild type according to the formula [Absorbance595 mutant]/[Absorbance595 wild type]×100."}, "[2]": {"system": "Candida albicans BWP17 wt", "test": "Percent hyphae by flow cytometry with or without heparin", "assay_type": "cell-based", "details": "100 units/ml heparin; YPD 30° C. or RPMI-HEPES 37° C.", "method": "Flow cytometry was performed by inoculating a single colony of BWP17 wt into 3 ml YPD medium and incubating overnight at 30° C. with shaking at 225 rpm. […] One ml aliquots of each mixture were removed, pelleted (7,000 rpm for 3 min), washed twice with PBS, and reconstituted in 1 ml PBS. Flow cytometry analysis was performed using the Imagestream^X flow cytometer (Amnis, Seattle Wash.) equipped with a 405 nm, 488 nm, 653 nm, laser and multi-mag function. The 40× magnification, 10 mm/sec flow rate, and 488 nm laser were used to collect SSC and Brightfield parameters. The flow cell allows particles up to 100 μm wide (height unlimited) to be collected in the instrument. INSPIRE (v.6.0) software was used to acquire events. Software analysis using IDEAS (v5.0) identified percent hyphae using aspect ratio, height and width features using the side scatter (Channel 6) and brightfield (Channel 1) parameters. Objects were selected within each file and tagged to use as identification of truth sets within the population."}, "C. albicans": {"system": "C. albicans", "test": "Histatin killing assay after heparin preincubation", "assay_type": "cell-based, Candida albicans", "details": "500 units/ml heparin, then histatin 5 (15 μM)", "method": "In order to evaluate the consequences of removal of Ssa1 and Ssa2 (Table 4), both targets of histatin, a histatin killing assay was performed as follows. C. albicans strains were grown to late log phase overnight in YPD. A single colony was suspended in 1 ml YPD, diluted 1:500 into 10 ml YPD, and incubated overnight at 30° C. and 225 rpm to OD600 1.0. Yeast cells were washed twice in PBS and 2×10^4 cells suspended in 250 μl RPMI+10 mM HEPES, pH 7.0, with or without 500 units/ml heparin (Sigma). The cells were incubated at 37° C. for one hour with shaking, washed twice with 10 mM phosphate buffer, pH 7.4, and suspended in 20 μl phosphate buffer. Histatin 5 (final concentration 15 μM; Peptides International) or 10 mM phosphate buffer was added to the preincubated cells (total volume 40 μl) and incubated further at 37° C. for 90 minutes with shaking. YPD (360 ul) was added to each tube, a 40 μl aliquot spread onto YPD plates, and colonies counted after two days. The effect of heparin treatment was determined by the formula % change=[(cfu+heparin)−(cfu−heparin)]/(cfu+heparin)."}},
  "note": "“Also recorded” adds a separate entry of the source.",
  "data": [
    {"substance": "heparin", "values": [
      {"measurement": "growth curves in presence or absence of soluble heparin", "setting": "[1]", "result": "identical"},
      {"measurement": "doubling times of wild type, Δint1 mutant, INT1 reintegrant and Motif 1, Motif 4, Motifs 1 and 4 reintegrants with and without heparin", "setting": "[1]; 30° C., RPMI-HEPES", "result": "no difference"},
      {"measurement": "effect on doubling times of planktonic yeast cells", "setting": "[1]; 30° C., YPD, RPMI-HEPES, RPMI-MOPS or CSM", "result": "no effect; also recorded: identical"},
      {"measurement": "percent hyphae by flow cytometry", "setting": "[2]", "result": "did not differ"},
      {"measurement": "decrease in histatin-mediated killing", "setting": "C. albicans; INT1 double disruptant", "result": 1.5, "unit": "%"},
      {"measurement": "decrease in histatin-mediated killing", "setting": "C. albicans; wild type C. albicans", "result": 25, "unit": "%"}
    ]}
  ]
}
